Results reported in the Kinase Knowledgebase extract (Sharma et al. 2016).
“And” between values parts separate entries of the source, which are not always exact repeats. Equal entries are not always repeated. Blank lines part the entries; values can stand above or below the compound they belong to.

Tests used:
EGFR (human) [1] = biological target: EGFR (human) (UniProt P00533); settings: concentration not given here
EGFR (human) [2] = biological target: EGFR (human) (UniProt P00533); settings: a431
[3] = biological target: PIK3CB;PIK3CG;PIK3CD;PIK3CA (human) (UniProt P48736); assay: Assessment of PIK3CA/PIK3CB/PIK3CD/PIK3CG Kinase Activity
EGFR (human) [4] = biological target: EGFR (human) (UniProt P00533)
PIK3CA (human) [5] = biological target: PIK3CA (human) (UniProt P42336); assay: Inhibition of PIK3CA Kinase Activity
PIK3CA (human) [6] = biological target: PIK3CA (human) (UniProt P42336); assay: Assesment of Cell Proliferation of IGROV-1 Cells Using SRB Assay
EGFR (human) [7] = biological target: EGFR (human) (UniProt P00533); settings: a431; remark: listed apart in the source
PIK3CA (bovine) = PIK3CA (bovine) (UniProt P32871); assay: Inhibition of PIK3CA Kinase Activity
EGFR (human) [8] = biological target: EGFR (human) (UniProt P00533); settings: a431; remark: listed apart in the source
EGFR [9] = biological target: EGFR (UniProt P00533)
EGFR (human) [10] = biological target: EGFR (human) (UniProt P00533); settings: concentration not given here; remark: listed apart in the source
MAPK14 = MAPK14 (UniProt Q16539); assay: Inhibition of MAPK14 Kinase Activity (Spectrophometric Assay)
EGFR (human) [11] = biological target: EGFR (human) (UniProt P00533); remark: listed apart in the source
PIK3CB (Human) = PIK3CB (Human) (UniProt P42338); assay: Inhibition of PIK3CB Kinase (ATP Loss) Activity
EGFR (human) [12] = biological target: EGFR (human) (UniProt P00533); settings: a431; remark: listed apart in the source
EGFR (human) [13] = biological target: EGFR (human) (UniProt P00533); settings: a431; remark: listed apart in the source
EGFR (human) [14] = biological target: EGFR (human) (UniProt P00533); remark: listed apart in the source
EGFR (murine) = EGFR (murine) (UniProt P00533); settings: nih3t3
EGFR (Balb/c mice) = EGFR (Balb/c mice) (UniProt P00533)
EGFR (human) [15] = biological target: EGFR (human) (UniProt P00533); settings: a431; remark: listed apart in the source
PIK3CA (human) [16] = biological target: PIK3CA (human) (UniProt P42336); assay: Assessment of PIK3CA Kinase Activity in NZB5 Cells
PIK3CA (human) [17] = biological target: PIK3CA (human) (UniProt P42336); assay: Assessment of PIK3CA Kinase Activity in NZOV9 Cells
[18] = biological target: PIK3CB;PIK3CG;PIK3CD;PIK3CA (human) (UniProt P48736); assay: Antiproliferation of Anti-IgM stimulated Human B Cells by PI3K Inhibitors
EGFR [19] = biological target: EGFR (UniProt P00533); remark: listed apart in the source
[20] = biological target: PIK3CB;PIK3CD;PIK3CA (human) (UniProt O00329); assay: Assessment of PI3K Kinase Activity
EGFR (human) [21] = biological target: EGFR (human) (UniProt P00533); remark: listed apart in the source
EGFR (human) [22] = biological target: EGFR (human) (UniProt P00533); remark: listed apart in the source
MAPK14 (human) = MAPK14 (human) (UniProt Q16539); assay: Inhibition of MAPK14 Kinase Activity
EGFR (human) [23] = biological target: EGFR (human) (UniProt P00533); remark: listed apart in the source
PIK3CA (human) [24] = biological target: PIK3CA (human) (UniProt P42336); assay: Antiproliferation of NZB5 Cell Line Using Thymidine Depletion Assay
PIK3CA (human) [25] = biological target: PIK3CA (human) (UniProt P42336); assay: Antiproliferation of NZOV9 Cell Line Using Thymidine Depletion Assay
EGFR (human) [26] = biological target: EGFR (human) (UniProt P00533); settings: kb

PIK3CA (human), sequence (P42336 whole entry, looked up): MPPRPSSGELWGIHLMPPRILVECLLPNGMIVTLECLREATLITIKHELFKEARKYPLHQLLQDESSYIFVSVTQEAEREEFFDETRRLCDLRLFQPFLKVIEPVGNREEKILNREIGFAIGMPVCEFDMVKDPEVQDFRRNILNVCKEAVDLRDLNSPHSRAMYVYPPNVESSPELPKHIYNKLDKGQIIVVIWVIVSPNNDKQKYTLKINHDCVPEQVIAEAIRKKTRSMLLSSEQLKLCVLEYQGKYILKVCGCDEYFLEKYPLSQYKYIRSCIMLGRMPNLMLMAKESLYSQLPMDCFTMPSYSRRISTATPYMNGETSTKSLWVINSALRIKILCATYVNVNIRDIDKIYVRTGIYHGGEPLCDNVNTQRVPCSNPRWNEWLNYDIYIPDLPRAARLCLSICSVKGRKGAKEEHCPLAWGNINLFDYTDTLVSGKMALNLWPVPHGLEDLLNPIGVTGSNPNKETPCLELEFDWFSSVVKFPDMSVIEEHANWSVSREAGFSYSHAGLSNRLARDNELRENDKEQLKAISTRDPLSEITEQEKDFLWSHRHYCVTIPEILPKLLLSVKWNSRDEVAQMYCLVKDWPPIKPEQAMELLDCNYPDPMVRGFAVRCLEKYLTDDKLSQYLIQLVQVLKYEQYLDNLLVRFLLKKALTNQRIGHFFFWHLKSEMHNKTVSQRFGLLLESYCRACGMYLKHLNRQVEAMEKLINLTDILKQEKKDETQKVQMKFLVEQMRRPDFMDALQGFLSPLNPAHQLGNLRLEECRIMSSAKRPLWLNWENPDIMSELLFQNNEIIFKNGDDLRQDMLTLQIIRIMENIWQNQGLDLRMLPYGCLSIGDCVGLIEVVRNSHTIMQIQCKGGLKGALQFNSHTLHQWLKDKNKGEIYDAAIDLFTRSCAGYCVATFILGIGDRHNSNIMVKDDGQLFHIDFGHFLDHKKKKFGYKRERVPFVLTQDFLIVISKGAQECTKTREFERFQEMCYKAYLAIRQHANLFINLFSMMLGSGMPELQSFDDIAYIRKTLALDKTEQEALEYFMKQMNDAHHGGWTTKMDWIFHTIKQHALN
EGFR, sequence (P00533 whole entry, looked up): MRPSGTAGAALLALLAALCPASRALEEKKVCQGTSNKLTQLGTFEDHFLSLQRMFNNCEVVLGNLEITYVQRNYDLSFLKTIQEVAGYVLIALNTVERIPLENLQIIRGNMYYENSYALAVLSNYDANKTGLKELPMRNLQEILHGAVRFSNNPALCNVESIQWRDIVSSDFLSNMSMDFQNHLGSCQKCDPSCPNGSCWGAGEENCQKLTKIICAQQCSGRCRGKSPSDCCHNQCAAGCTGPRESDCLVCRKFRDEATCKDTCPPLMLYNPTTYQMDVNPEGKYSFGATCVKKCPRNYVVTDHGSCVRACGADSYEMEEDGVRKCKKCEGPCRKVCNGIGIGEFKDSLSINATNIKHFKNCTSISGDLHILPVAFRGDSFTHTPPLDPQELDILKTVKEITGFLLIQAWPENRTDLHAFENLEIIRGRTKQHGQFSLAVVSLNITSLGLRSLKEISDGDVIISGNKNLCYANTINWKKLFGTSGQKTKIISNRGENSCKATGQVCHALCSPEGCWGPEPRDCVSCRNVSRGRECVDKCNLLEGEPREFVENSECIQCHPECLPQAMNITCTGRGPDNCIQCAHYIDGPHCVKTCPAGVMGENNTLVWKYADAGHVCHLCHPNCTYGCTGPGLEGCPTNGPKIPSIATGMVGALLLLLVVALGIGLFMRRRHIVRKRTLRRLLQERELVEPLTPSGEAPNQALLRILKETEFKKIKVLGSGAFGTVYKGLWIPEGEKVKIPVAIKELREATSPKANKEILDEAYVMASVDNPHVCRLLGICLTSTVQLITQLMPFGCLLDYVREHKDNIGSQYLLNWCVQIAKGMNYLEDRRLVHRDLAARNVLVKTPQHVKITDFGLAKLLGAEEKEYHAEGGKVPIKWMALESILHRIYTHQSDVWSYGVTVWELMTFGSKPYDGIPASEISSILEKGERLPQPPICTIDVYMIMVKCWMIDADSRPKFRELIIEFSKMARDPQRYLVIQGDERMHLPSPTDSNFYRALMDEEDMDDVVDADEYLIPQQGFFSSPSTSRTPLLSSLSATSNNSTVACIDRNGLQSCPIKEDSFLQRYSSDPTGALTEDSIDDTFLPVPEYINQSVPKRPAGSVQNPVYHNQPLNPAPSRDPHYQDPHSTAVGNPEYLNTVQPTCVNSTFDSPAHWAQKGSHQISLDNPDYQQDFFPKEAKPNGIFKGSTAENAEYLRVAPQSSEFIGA
EGFR (human), sequence (P00533 whole entry, looked up): as above
PIK3CB;PIK3CD;PIK3CA (human), sequence (O00329 whole entry, looked up): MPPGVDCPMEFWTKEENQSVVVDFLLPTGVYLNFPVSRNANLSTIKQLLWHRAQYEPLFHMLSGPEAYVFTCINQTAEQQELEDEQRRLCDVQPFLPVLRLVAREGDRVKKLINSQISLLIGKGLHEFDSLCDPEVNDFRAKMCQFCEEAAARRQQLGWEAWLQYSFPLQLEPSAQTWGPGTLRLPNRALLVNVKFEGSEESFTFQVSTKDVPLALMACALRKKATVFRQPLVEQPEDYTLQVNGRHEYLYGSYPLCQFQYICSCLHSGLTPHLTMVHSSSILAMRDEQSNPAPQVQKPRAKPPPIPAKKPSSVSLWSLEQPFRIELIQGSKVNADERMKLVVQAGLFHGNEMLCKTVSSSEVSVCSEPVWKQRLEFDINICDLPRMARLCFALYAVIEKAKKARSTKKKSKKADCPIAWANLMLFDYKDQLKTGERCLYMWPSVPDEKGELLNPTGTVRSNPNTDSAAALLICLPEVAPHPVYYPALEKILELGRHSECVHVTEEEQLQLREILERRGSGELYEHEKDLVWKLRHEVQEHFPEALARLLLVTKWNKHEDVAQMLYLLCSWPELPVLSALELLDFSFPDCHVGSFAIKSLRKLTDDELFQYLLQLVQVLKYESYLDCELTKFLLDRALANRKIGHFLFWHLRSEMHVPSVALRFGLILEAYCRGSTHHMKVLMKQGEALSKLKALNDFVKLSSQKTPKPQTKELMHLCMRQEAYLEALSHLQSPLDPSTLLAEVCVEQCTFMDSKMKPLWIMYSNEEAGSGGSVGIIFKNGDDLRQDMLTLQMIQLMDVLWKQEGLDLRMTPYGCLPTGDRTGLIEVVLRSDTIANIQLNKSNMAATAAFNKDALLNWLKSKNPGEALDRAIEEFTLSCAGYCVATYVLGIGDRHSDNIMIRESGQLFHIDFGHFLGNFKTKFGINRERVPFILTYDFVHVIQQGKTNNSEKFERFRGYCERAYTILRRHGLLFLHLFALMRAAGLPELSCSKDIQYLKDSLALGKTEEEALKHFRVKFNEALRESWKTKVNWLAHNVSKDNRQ
MAPK14 (human), sequence (Q16539 whole entry, looked up): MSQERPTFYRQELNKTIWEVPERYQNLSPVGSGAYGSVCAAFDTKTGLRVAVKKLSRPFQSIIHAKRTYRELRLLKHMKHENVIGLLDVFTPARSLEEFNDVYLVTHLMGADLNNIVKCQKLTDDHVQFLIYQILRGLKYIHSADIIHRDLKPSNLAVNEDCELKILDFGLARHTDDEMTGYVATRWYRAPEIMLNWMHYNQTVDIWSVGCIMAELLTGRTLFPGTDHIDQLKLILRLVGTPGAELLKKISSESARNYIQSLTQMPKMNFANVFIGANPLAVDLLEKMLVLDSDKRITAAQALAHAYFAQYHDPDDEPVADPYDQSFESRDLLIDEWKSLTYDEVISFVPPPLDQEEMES
MAPK14, sequence (Q16539 whole entry, looked up): as above
PIK3CA (bovine), sequence (P32871 whole entry, looked up): as the sequence (P42336 whole entry, looked up) above, with K532R, S535C counted along it

inhibition (EGFR (human) [1]): -13%
Structure (SMILES): COCCOc1cc2ncnc(NC3=CC(=O)C(OCc4cccc(OC)c4)=CC3=O)c2cc1OC

IC50 (EGFR (human) [2]): 4.5 µM
Structure (SMILES): COc1ccc(OC)c(Cc2cc3c(Nc4cccc(Br)c4)ncnc3[nH]2)c1

IC50 [3]: 0.1 to 1 µM
Structure (SMILES): Oc1cccc(-c2c(F)cnc3[nH]c4cnc(-c5cccnc5)cc4c23)c1

IC50 (EGFR (human) [4]): 0.049 µM
Structure (SMILES): COc1ccc(NN=Cc2c(N)ncnc2Nc2ccc3c(cnn3Cc3cccc(F)c3)c2)cc1

inhibition (EGFR (human) [1]): -30%
Structure (SMILES): COCCOc1cc2ncnc(NC3=CC(=O)C(OCc4ccccc4)=CC3=O)c2cc1OC

IC50 (PIK3CA (human) [5]): > 10 µM
Structure (SMILES): CS(=O)(=O)Nc1cccc(-c2cc(OCc3ccccn3)nc(N3CCOCC3)n2)c1
GI50 (PIK3CA (human) [6]): 16 µM

IC50 (EGFR (human) [7]): > 50 µM
Structure (SMILES): CCOc1ccc(-c2cc(C(F)(F)F)c(C#N)c(SCC(=O)NCC(=O)O)n2)cc1

IC50 (PIK3CA (bovine)): > 30 µM
Structure (SMILES): c1cnc2[nH]c3c(N4CCOCC4)ncnc3c2c1

IC50 (EGFR (human) [8]): 0.128 µM
Structure (SMILES): C=C(CN1CCOCC1)C(=O)Nc1ccc2ncnc(Nc3cccc(Br)c3)c2c1

IC50 (EGFR [9]): > 50 µM
Structure (SMILES): COc1cc(OC)cc(-c2cc3cnc(NCCCN4CCN(C)CC4)nc3nc2NC(=O)NC(C)(C)C)c1

IC50 [3]: 0.1 to 1 µM
Structure (SMILES): CS(=O)(=O)Nc1ccc(-c2c(F)cnc3[nH]c4cnc(-c5cccnc5)cc4c23)cc1

inhibition (EGFR (human) [10]): < 50%
Structure (SMILES): Cc1nc2c(NC(C)(C)C)nc(Nc3ccc4ncsc4c3)nc2[nH]1

IC50 (MAPK14): 0.008 µM
Structure (SMILES): CC(C)(C)c1cc(NC(=O)Nc2cccc3ccccc23)n(-c2ccc(CO)cc2)n1

IC50 (EGFR (human) [11]): 0.05 µM
Structure (SMILES): O=S(=O)(CCNCCCc1ccc(-c2ccc3ncnc(Nc4ccc(OCc5ccccc5)c(Cl)c4)c3c2)o1)c1ccccc1

IC50 (PIK3CB (Human)): 40 µM
Structure (SMILES): O=S(=O)(Nc1cc(-c2ccc3cnccc3c2)cnc1Cl)c1ccc(F)cc1

IC50 (EGFR (human) [2]): 16.2 µM
Structure (SMILES): Nc1nc(Nc2ccc(Cl)cc2Br)c2cc(Cc3ccc(Cl)cc3Cl)[nH]c2n1

IC50 (EGFR (human) [12]): > 200 µM | IC50 (EGFR (human) [13]): 46.7 µM
Structure (SMILES): Nc1nc(Nc2ccc(Cl)cc2F)c2cc(Cc3cccc4ccccc34)[nH]c2n1

IC50 (EGFR (human) [14]): 0.0109 µM
Structure (SMILES): OC[C@@H]1CCCN1Cc1ccc(Nc2nc3ncnc(Nc4ccc(F)c(Cl)c4)c3s2)cc1

Structure (SMILES): COc1cc2ncnc(Nc3cccc(Cl)c3)c2cc1OC
IC50 (EGFR (murine)): < 0.015 µM | LD50 (EGFR (Balb/c mice)): > 200 mg/kg | GI50 (EGFR (human) [15]): 0.302 µM

IC50 (PIK3CA (human) [16]): > 20 µM | IC50 (PIK3CA (human) [17]): > 20 µM
Structure (SMILES): CC(=NN(C)S(=O)(=O)c1cc([N+](=O)[O-])ccc1C)c1cnn2ccc(Br)cc12

IC50 (EGFR (human) [2]): 198 µM
Structure (SMILES): FC(F)(F)c1cccc(Nc2ncnc3[nH]c(Cc4ccc(Cl)cc4Cl)cc23)c1

IC50 (EGFR (human) [4]): 0.0529 µM
Structure (SMILES): Nc1ncnc(Nc2ccc3c(cnn3Cc3cccc(F)c3)c2)c1C=NNCC(F)(F)F

Structure (SMILES): Fc1ccc(OCCc2ccccc2)c(-c2nc3c(Cl)cccc3cc2CNc2ncnc3[nH]cnc23)c1
IC50 [18]: 0.565 µM

IC50 (EGFR [19]): 0.021 µM
Structure (SMILES): CN(C)CC(=O)N1CCC(Oc2ccc3ncnc(Nc4ccc(OCc5cnccn5)c(Cl)c4)c3c2)CC1

IC50 [20]: 57.8 µM and 91.2 µM
Structure (SMILES): Cc1cc(NC(=O)Nc2ccc(-c3nc(CS(C)(=O)=O)cc(N4CCOCC4)n3)cc2)no1

IC50 (EGFR (human) [21]): 0.009 µM
Structure (SMILES): C#CCCCN1CCN(Cc2c(C)ncnc2Nc2ccc(OCc3cccc(F)c3)c(Cl)c2)CC1

IC50 (EGFR [19]): 0.039 µM
Structure (SMILES): CN(C)CC(=O)N1CCC(Oc2ccc3ncnc(Nc4ccc(OCc5ccccn5)c(Cl)c4)c3c2)CC1

IC50 (EGFR (human) [22]): ≤ 0.1 µM
Structure (SMILES): Cc1cc2c(F)c(Nc3ncnc4cc(OCCCN5CCCC5)c(OCCCCCC(=O)NO)cc34)ccc2[nH]1

IC50 (EGFR [9]): > 50 µM
Structure (SMILES): CCNC(=O)Nc1nc2nc(NCCCN3CCN(C)CC3)ncc2cc1-c1cc(OC)cc(OC)c1

IC50 (EGFR (human) [12]): 0.24 µM | IC50 (EGFR (human) [13]): 5.6 µM
Structure (SMILES): Cc1ccccc1Cc1cc2c(Nc3ccc(Cl)cc3)nc(N)nc2[nH]1

IC50 (MAPK14 (human)): 0.111 µM | IC50 (EGFR (human) [23]): < 1 µM
Structure (SMILES): O=C(CO)N1CCC(c2[nH]nc(-c3ccc(Cl)cc3)c2-c2ccncc2)CC1

IC50 (PIK3CA (human) [24]): > 20 µM | IC50 (PIK3CA (human) [25]): > 20 µM
Structure (SMILES): Cc1ccc([N+](=O)[O-])cc1S(=O)(=O)N(C)N=Cc1csc2ccccc12

IC50 (EGFR (human) [26]): 0.056 µM
Structure (SMILES): COc1cc2ncnc(Nc3cccc(Cl)c3F)c2cc1O[C@H]1CCN(C)[C@H](C(N)=O)C1

IC50 [20]: 6.8 µM
Structure (SMILES): O=S(=O)(CCc1cccc(C(F)(F)F)c1)Cc1cc(N2CCOCC2)nc(-c2ccccn2)n1

Structure (SMILES): Cc1cccnc1-c1nc2c(Cl)cccc2cc1CNc1ncnc2[nH]cnc12
IC50 [18]: 0.079 µM

IC50 (PIK3CA (human) [5]): 8.9 µM
Structure (SMILES): c1ccc(CCNc2nc(-c3ccc4cc[nH]c4c3)cc(N3CCOCC3)n2)nc1
GI50 (PIK3CA (human) [6]): 3.6 µM
